The source of these data is US20220112187A1, “PYRAZOLOPYRIDINE AMINE COMPOUNDS FOR THE TREATMENT OF AUTOIMMUNE DISEASE” (Hoffmann-La Roche Inc., priority 2018, published 2022).

Each structure is given as a SMILES string.

As a reminder, the IC50 is the point on the concentration scale where inhibition reaches its midpoint.

The target in the experiment is T1, human TLR9 (Homo sapiens, UniProt Q9NR96).
T1 sequence (Q9NR96 26-1032): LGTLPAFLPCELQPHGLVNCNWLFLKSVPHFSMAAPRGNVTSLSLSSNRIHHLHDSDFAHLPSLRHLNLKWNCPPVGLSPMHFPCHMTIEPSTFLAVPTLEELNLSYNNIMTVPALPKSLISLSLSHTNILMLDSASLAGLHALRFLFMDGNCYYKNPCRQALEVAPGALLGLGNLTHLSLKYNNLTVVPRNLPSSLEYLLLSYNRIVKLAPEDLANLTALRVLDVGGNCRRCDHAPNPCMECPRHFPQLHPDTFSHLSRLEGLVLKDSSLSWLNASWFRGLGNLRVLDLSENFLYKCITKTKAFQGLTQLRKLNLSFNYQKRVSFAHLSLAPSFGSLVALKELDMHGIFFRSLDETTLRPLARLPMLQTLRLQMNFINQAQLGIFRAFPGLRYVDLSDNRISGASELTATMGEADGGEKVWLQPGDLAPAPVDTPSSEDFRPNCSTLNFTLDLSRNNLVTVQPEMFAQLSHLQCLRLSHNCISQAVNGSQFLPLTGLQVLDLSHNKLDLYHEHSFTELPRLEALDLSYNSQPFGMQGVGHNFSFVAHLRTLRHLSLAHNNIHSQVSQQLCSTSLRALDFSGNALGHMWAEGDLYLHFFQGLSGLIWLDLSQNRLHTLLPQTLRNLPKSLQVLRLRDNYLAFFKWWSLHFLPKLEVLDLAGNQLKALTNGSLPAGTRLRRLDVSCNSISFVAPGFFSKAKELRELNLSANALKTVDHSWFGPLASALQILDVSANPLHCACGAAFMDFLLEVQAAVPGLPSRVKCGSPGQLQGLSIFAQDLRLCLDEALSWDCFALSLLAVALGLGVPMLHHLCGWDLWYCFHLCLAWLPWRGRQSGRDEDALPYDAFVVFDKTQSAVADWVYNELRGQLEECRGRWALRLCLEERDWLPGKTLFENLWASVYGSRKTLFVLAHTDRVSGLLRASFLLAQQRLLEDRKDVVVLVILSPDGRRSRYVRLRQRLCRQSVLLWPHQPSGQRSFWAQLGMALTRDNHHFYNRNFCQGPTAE
Nature of the experiment: HEK293-Blue-hTLR-9 cells assay (SEAP reporter, ODN2006 stimulation). The note with it: HEK293-Blue-hTLR9 cells, ODN2006 ligand, 20 hrs incubation. In kind it is cell-based. The method, boiled down:
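HEK293-Blue cells stimulated with ODN2006 (10 μL of 20 uM added) plus serially diluted compound, 1% DMSO final, for 20 hrs at 37° C. SEAP in supernatant measured with QUANTI-Blue after 2 hrs at 37° C, absorbance at 620-655 nm; antagonism seen as reduced reporter signal.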
Molecule `C[C@@H]1CN(c2ccc(C#N)n3nccc23)C[C@H](CN2CCN(C)CC2)O1` [Example 15, 4-[(2R,6S)-2-methyl-6-[(4-methylpiperazin-1-yl)methyl]morpholin-4-yl]pyrazolo[1,5-a]pyridine-7-carbonitrile] registered an IC50 of 23 µM. Then `C[C@@H]1CN(c2ccc(C#N)n3nccc23)C[C@H](CN2C3CCC2CNC3)O1` [Example 43, 4-[(2S,6R)-2-(3,8-diazabicyclo[3.2.1]octan-8-ylmethyl)-6-methyl-morpholin-4-yl]pyrazolo[1,5-a]pyridine-7-carbonitrile], with 10 µM; and `C[C@@H]1CN(c2ccc(C#N)n3nccc23)C[C@H](CN2CCN(C(=O)CN)CC2)O1` [Example 14, 4-[(2S,6R)-2-[[4-(2-aminoacetyl)piperazin-1-yl]methyl]-6-methyl-morpholin-4-yl]pyrazolo[1,5-a]pyridine-7-carbonitrile], with 3 µM; and `C[C@@H]1CN(c2ccc(C#N)n3nccc23)C[C@H](CNC2CCN(C)CC2)O1` [Example 7, 4-[(2R,6S)-2-methyl-6-[[(1-methyl-4-piperidyl)amino]methyl]morpholin-4-yl]pyrazolo[1,5-a]pyridine-7-carbonitrile], with 0.32 µM. Take `C[C@@H]1CN(c2ccc(C#N)n3nccc23)C[C@H](CN2CCC3(CCNCC3)C2)O1` [Example 18, 4-[(2S,6R)-2-(2,8-diazaspiro[4.5]decan-2-ylmethyl)-6-methyl-morpholin-4-yl]pyrazolo[1,5-a]pyridine-7-carbonitrile]: the midpoint of inhibition, the IC50, lay at 0.089 µM. Turning to `CC1CNCCN1C[C@H]1CN(c2ccc(C#N)n3nccc23)C[C@@H](C)O1` (single isomer, unassigned) [Example 50A], the concentration for half-maximal inhibition (IC50) came out at 16 µM.
